# Test results taken from ChEMBL document CHEMBL3046161, “Synthesis of potential antitubercular and antimicrobial s-triazine-based scaffolds via Suzuki cross-coupling reaction” (2013).
# How the values were obtained:
# Type in all cases: functional
# Salmonella typhi [1] = assay: Antibacterial activity against Salmonella enterica subsp. enterica serovar Typhi MTCC 733 assessed as growth inhibition at 3.12 to 50 ug/mL after 24 hr by agar disk diffusion method
# Klebsiella pneumoniae [2] = assay: Antibacterial activity against Klebsiella pneumoniae MTCC 109 assessed as growth inhibition at 3.12 to 50 ug/mL after 24 hr by agar disk diffusion method
# Klebsiella pneumoniae [3] = assay: Antibacterial activity against Klebsiella pneumoniae MTCC 109 assessed as growth inhibition after 24 hr by agar streak dilution method; conditions: MTCC 109, 24 h
# Salmonella typhi [4] = assay: Antibacterial activity against Salmonella enterica subsp. enterica serovar Typhi MTCC 733 assessed as growth inhibition after 24 hr by agar streak dilution method; conditions: MTCC 733, 24 h
# Pseudomonas aeruginosa [5] = assay: Antibacterial activity against Pseudomonas aeruginosa MTCC 741 assessed as growth inhibition after 24 hr by agar streak dilution method; conditions: MTCC 741, 24 h
# Escherichia coli [6] = assay: Antibacterial activity against Escherichia coli MTCC 739 assessed as growth inhibition after 24 hr by agar streak dilution method; conditions: MTCC 739, 24 h
# Bacillus cereus [7] = assay: Antibacterial activity against Bacillus cereus MTCC 430 assessed as growth inhibition after 24 hr by agar streak dilution method; conditions: MTCC 430, 24 h
# Staphylococcus aureus [8] = assay: Antibacterial activity against Staphylococcus aureus MTCC 96 assessed as growth inhibition after 24 hr by agar streak dilution method; conditions: MTCC 96, 24 h
# [9] = tested on: Mycobacterium tuberculosis; assay: Antimycobacterial activity against Mycobacterium tuberculosis H37Rv assessed as growth inhibition at MIC after 12 to 28 days by Lowenstein and Jensen agar dilution method
# [10] = tested on: Mycobacterium tuberculosis; assay: Antimycobacterial activity against Mycobacterium tuberculosis H37Rv assessed as growth inhibition after 12 to 28 days by Lowenstein and Jensen agar dilution method
# [11] = tested on: Mycobacterium tuberculosis; assay: Antimycobacterial activity against Mycobacterium tuberculosis H37Rv assessed as growth inhibition at MIC measured within 10 days by BACTEC MGIT method
# [12] = tested on: Mycobacterium tuberculosis; assay: Antimycobacterial activity against Mycobacterium tuberculosis H37Rv assessed as growth inhibition measured within 10 days by BACTEC MGIT method; conditions: 240 h
# Candida albicans [13] = assay: Antifungal activity against Candida albicans MTCC 183 assessed as growth inhibition at 3.12 to 50 ug/mL after 24 hr by agar disk diffusion method
# Aspergillus clavatus [14] = assay: Antifungal activity against Aspergillus clavatus MTCC 1323 assessed as growth inhibition at 3.12 to 50 ug/mL after 24 hr by agar disk diffusion method
# Aspergillus fumigatus [15] = assay: Antifungal activity against Aspergillus fumigatus MTCC 343 assessed as growth inhibition at 3.12 to 50 ug/mL after 24 hr by agar disk diffusion method
# Aspergillus niger [16] = assay: Antifungal activity against Aspergillus niger MTCC 282 assessed as growth inhibition at 3.12 to 50 ug/mL after 24 hr by agar disk diffusion method
# Candida albicans [17] = assay: Antifungal activity against Candida albicans MTCC 183 assessed as growth inhibition after 48 hr by agar streak dilution method; conditions: MTCC 183, 48 h
# Aspergillus clavatus [18] = assay: Antifungal activity against Aspergillus clavatus MTCC 1323 assessed as growth inhibition after 48 hr by agar streak dilution method; conditions: MTCC 1323, 48 h
# Aspergillus fumigatus [19] = assay: Antifungal activity against Aspergillus fumigatus MTCC 343 assessed as growth inhibition after 48 hr by agar streak dilution method; conditions: MTCC 343, 48 h
# Aspergillus niger [20] = assay: Antifungal activity against Aspergillus niger MTCC 282 assessed as growth inhibition after 48 hr by agar streak dilution method; conditions: MTCC 282, 48 h
# Shigella flexneri [21] = assay: Antibacterial activity against Shigella flexneri MTCC 1457 assessed as growth inhibition at 3.12 to 50 ug/mL after 24 hr by agar disk diffusion method
# Proteus vulgaris [22] = assay: Antibacterial activity against Proteus vulgaris MTCC 1771 assessed as growth inhibition at 3.12 to 50 ug/mL after 24 hr by agar disk diffusion method
# Pseudomonas aeruginosa [23] = assay: Antibacterial activity against Pseudomonas aeruginosa MTCC 741 assessed as growth inhibition at 3.12 to 50 ug/mL after 24 hr by agar disk diffusion method
# Escherichia coli [24] = assay: Antibacterial activity against Escherichia coli MTCC 739 assessed as growth inhibition at 3.12 to 50 ug/mL after 24 hr by agar disk diffusion method
# Bacillus cereus [25] = assay: Antibacterial activity against Bacillus cereus MTCC 430 assessed as growth inhibition at 3.12 to 50 ug/mL after 24 hr by agar disk diffusion method
# Staphylococcus aureus [26] = assay: Antibacterial activity against Staphylococcus aureus MTCC 96 assessed as growth inhibition at 3.12 to 50 ug/mL after 24 hr by agar disk diffusion method
# Shigella flexneri [27] = assay: Antibacterial activity against Shigella flexneri MTCC 1457 assessed as growth inhibition after 24 hr by agar streak dilution method; conditions: MTCC 1457, 24 h
# Proteus vulgaris [28] = assay: Antibacterial activity against Proteus vulgaris MTCC 1771 assessed as growth inhibition after 24 hr by agar streak dilution method; conditions: MTCC 1771, 24 h
structure (smiles),measurement,setting,value
CCOc1ccc2nc(NC(=O)CNc3ccc(-c4nc(N5CC(C)CC(C)C5)nc(N5CC(C)CC(C)C5)n4)cc3)sc2c1 (stereo not drawn),inhibition zone (IZ),Salmonella typhi [1],19 mm
same,inhibition zone (IZ),Klebsiella pneumoniae [2],24 mm
same,MIC,Klebsiella pneumoniae [3],50 µg/mL
same,MIC,Salmonella typhi [4],50 µg/mL
same,MIC,Pseudomonas aeruginosa [5],12.5 µg/mL
same,MIC,Escherichia coli [6],12.5 µg/mL
same,MIC,Bacillus cereus [7],25 µg/mL
same,MIC,Staphylococcus aureus [8],6.25 µg/mL
same,growth inhibition (GI),[9],99%
same,MIC,[10],6.25 µg/mL
same,growth inhibition (GI),[11],99%
same,MIC,[12],6.25 µg/mL
same,inhibition zone (IZ),Candida albicans [13],25 mm
same,inhibition zone (IZ),Aspergillus clavatus [14],16 mm
same,inhibition zone (IZ),Aspergillus fumigatus [15],16 mm
same,inhibition zone (IZ),Aspergillus niger [16],20 mm
same,MIC,Candida albicans [17],12.5 µg/mL
same,MIC,Aspergillus clavatus [18],50 µg/mL
same,MIC,Aspergillus fumigatus [19],50 µg/mL
same,MIC,Aspergillus niger [20],25 µg/mL
same,inhibition zone (IZ),Shigella flexneri [21],17 mm
same,inhibition zone (IZ),Proteus vulgaris [22],26 mm
same,inhibition zone (IZ),Pseudomonas aeruginosa [23],23 mm
same,inhibition zone (IZ),Escherichia coli [24],23 mm
same,inhibition zone (IZ),Bacillus cereus [25],24 mm
same,inhibition zone (IZ),Staphylococcus aureus [26],23 mm
same,MIC,Shigella flexneri [27],50 µg/mL
same,MIC,Proteus vulgaris [28],12.5 µg/mL
CC1CC(C)CN(c2nc(-c3ccc(NCC(=O)Nc4nc5ccc(F)cc5s4)cc3)nc(N3CC(C)CC(C)C3)n2)C1 (stereo not drawn),inhibition zone (IZ),Salmonella typhi [1],23 mm
same,inhibition zone (IZ),Klebsiella pneumoniae [2],25 mm
same,MIC,Klebsiella pneumoniae [3],25 µg/mL
same,MIC,Salmonella typhi [4],12.5 µg/mL
same,MIC,Pseudomonas aeruginosa [5],25 µg/mL
same,MIC,Escherichia coli [6],25 µg/mL
same,MIC,Bacillus cereus [7],3.12 µg/mL
same,MIC,Staphylococcus aureus [8],3.12 µg/mL
same,growth inhibition (GI),[9],99%
same,MIC,[10],3.12 µg/mL
same,growth inhibition (GI),[11],99%
same,MIC,[12],6.25 µg/mL
same,inhibition zone (IZ),Candida albicans [13],23 mm
same,inhibition zone (IZ),Aspergillus clavatus [14],25 mm
same,inhibition zone (IZ),Aspergillus fumigatus [15],25 mm
same,inhibition zone (IZ),Aspergillus niger [16],22 mm
same,MIC,Candida albicans [17],50 µg/mL
same,MIC,Aspergillus clavatus [18],50 µg/mL
same,MIC,Aspergillus fumigatus [19],25 µg/mL
same,MIC,Aspergillus niger [20],12.5 µg/mL
same,inhibition zone (IZ),Shigella flexneri [21],26 mm
same,inhibition zone (IZ),Proteus vulgaris [22],25 mm
same,inhibition zone (IZ),Pseudomonas aeruginosa [23],25 mm
same,inhibition zone (IZ),Escherichia coli [24],20 mm
same,inhibition zone (IZ),Bacillus cereus [25],28 mm
same,inhibition zone (IZ),Staphylococcus aureus [26],25 mm
same,MIC,Shigella flexneri [27],6.25 µg/mL
same,MIC,Proteus vulgaris [28],25 µg/mL
CC1CC(C)CN(c2nc(-c3ccc(NCC(=O)Nc4ccccc4)cc3)nc(N3CC(C)CC(C)C3)n2)C1 (stereo not drawn),inhibition zone (IZ),Salmonella typhi [1],<10 mm
same,inhibition zone (IZ),Klebsiella pneumoniae [2],<10 mm
same,MIC,Klebsiella pneumoniae [3],50 µg/mL
same,MIC,Salmonella typhi [4],50 µg/mL
same,MIC,Pseudomonas aeruginosa [5],50 µg/mL
same,MIC,Escherichia coli [6],50 µg/mL
same,MIC,Bacillus cereus [7],50 µg/mL
same,MIC,Staphylococcus aureus [8],50 µg/mL
same,growth inhibition (GI),[9],95%
same,MIC,[10],250 µg/mL
same,MIC,[12],> 6.25 µg/mL
same,inhibition zone (IZ),Candida albicans [13],<10 mm
same,inhibition zone (IZ),Aspergillus clavatus [14],<10 mm
same,inhibition zone (IZ),Aspergillus fumigatus [15],<10 mm
same,inhibition zone (IZ),Aspergillus niger [16],<10 mm
same,MIC,Candida albicans [17],> 50 µg/mL
same,MIC,Aspergillus clavatus [18],> 50 µg/mL
same,MIC,Aspergillus fumigatus [19],50 µg/mL
same,MIC,Aspergillus niger [20],50 µg/mL
same,inhibition zone (IZ),Shigella flexneri [21],<10 mm
same,inhibition zone (IZ),Proteus vulgaris [22],14 mm
same,inhibition zone (IZ),Pseudomonas aeruginosa [23],19 mm
same,inhibition zone (IZ),Escherichia coli [24],<10 mm
same,inhibition zone (IZ),Bacillus cereus [25],12 mm
same,inhibition zone (IZ),Staphylococcus aureus [26],11 mm
same,MIC,Shigella flexneri [27],50 µg/mL
same,MIC,Proteus vulgaris [28],50 µg/mL
CC1CC(C)CN(c2nc(-c3ccc(NCC(=O)Nc4ccc(Cl)cc4)cc3)nc(N3CC(C)CC(C)C3)n2)C1 (stereo not drawn),inhibition zone (IZ),Salmonella typhi [1],18 mm
same,inhibition zone (IZ),Klebsiella pneumoniae [2],21 mm
same,MIC,Klebsiella pneumoniae [3],50 µg/mL
same,MIC,Salmonella typhi [4],50 µg/mL
same,MIC,Pseudomonas aeruginosa [5],25 µg/mL
same,MIC,Escherichia coli [6],50 µg/mL
same,MIC,Bacillus cereus [7],50 µg/mL
same,MIC,Staphylococcus aureus [8],25 µg/mL
same,growth inhibition (GI),[9],98%
same,MIC,[10],25 µg/mL
same,MIC,[12],> 6.25 µg/mL
same,inhibition zone (IZ),Candida albicans [13],<10 mm
same,inhibition zone (IZ),Aspergillus clavatus [14],<10 mm
same,inhibition zone (IZ),Aspergillus fumigatus [15],14 mm
same,inhibition zone (IZ),Aspergillus niger [16],<10 mm
same,MIC,Candida albicans [17],> 50 µg/mL
same,MIC,Aspergillus clavatus [18],> 50 µg/mL
same,MIC,Aspergillus fumigatus [19],50 µg/mL
same,MIC,Aspergillus niger [20],50 µg/mL
same,inhibition zone (IZ),Shigella flexneri [21],24 mm
same,inhibition zone (IZ),Proteus vulgaris [22],21 mm
same,inhibition zone (IZ),Pseudomonas aeruginosa [23],26 mm
same,inhibition zone (IZ),Escherichia coli [24],12 mm
same,inhibition zone (IZ),Bacillus cereus [25],13 mm
same,inhibition zone (IZ),Staphylococcus aureus [26],18 mm
same,MIC,Shigella flexneri [27],12.5 µg/mL
same,MIC,Proteus vulgaris [28],50 µg/mL
CC1CC(C)CN(c2nc(-c3ccc(NCC(=O)Nc4ccc(Br)cc4)cc3)nc(N3CC(C)CC(C)C3)n2)C1 (stereo not drawn),inhibition zone (IZ),Salmonella typhi [1],20 mm
same,inhibition zone (IZ),Klebsiella pneumoniae [2],24 mm
same,MIC,Klebsiella pneumoniae [3],25 µg/mL
same,MIC,Salmonella typhi [4],25 µg/mL
same,MIC,Pseudomonas aeruginosa [5],12.5 µg/mL
same,MIC,Escherichia coli [6],25 µg/mL
same,MIC,Bacillus cereus [7],6.25 µg/mL
same,MIC,Staphylococcus aureus [8],3.12 µg/mL
same,growth inhibition (GI),[9],99%
same,MIC,[10],3.12 µg/mL
same,growth inhibition (GI),[11],99%
same,MIC,[12],6.25 µg/mL
same,inhibition zone (IZ),Candida albicans [13],13 mm
same,inhibition zone (IZ),Aspergillus clavatus [14],25 mm
same,inhibition zone (IZ),Aspergillus fumigatus [15],23 mm
same,inhibition zone (IZ),Aspergillus niger [16],12 mm
same,MIC,Candida albicans [17],50 µg/mL
same,MIC,Aspergillus clavatus [18],50 µg/mL
same,MIC,Aspergillus fumigatus [19],50 µg/mL
same,MIC,Aspergillus niger [20],50 µg/mL
same,inhibition zone (IZ),Shigella flexneri [21],22 mm
same,inhibition zone (IZ),Proteus vulgaris [22],13 mm
same,inhibition zone (IZ),Pseudomonas aeruginosa [23],27 mm
same,inhibition zone (IZ),Escherichia coli [24],19 mm
same,inhibition zone (IZ),Bacillus cereus [25],27 mm
same,inhibition zone (IZ),Staphylococcus aureus [26],24 mm
same,MIC,Shigella flexneri [27],12.5 µg/mL
same,MIC,Proteus vulgaris [28],50 µg/mL
